Consider seven molecules from US7314755B2, “Preservation of eukaryotic cells using reversible pore formation” (Board of Supervisors of Louisiana State University and …, priority 2003, dated 2008).

Data set [1] concerns AMP-activated protein kinase. Conditions: cited from earlier work.
Data set [2] relates to J774 cells. Put plainly: Trehalose uptake with and without extracellular ATP. The class given is cell-based. How it is done:
Cell extracts were assayed for trehalose concentrations by separating carbohydrate peaks on a Hamilton RCX10 column, and then analyzing using pulsed amperometric electrochemical detection with an ESA Coulochem cell. […] The white bars are results from treatment for 15 minutes at 37° C. The cross-hatched bars are results from treatment for 15 minutes at 37° C., followed by 2 hours at 0° C. […] Each bar in FIG. 7 represents the mean of several different measurements. Although leaving the pores open for the longer periods of time at 37° C. can lead to cell death, the pores may be left open for longer periods at lower temperatures, while still leaving the cells viable and still allowing higher uptake of trehalose. At least 40% of the cells survived this treatment. We expect that the survivorship percentage will be improved by reducing the time the cells are held at 37° C. prior to chilling; future experiments will be done along these lines.

The test system of data set [3] is J774 cells. The data set can be described thus: HPLC of nucleotides in extracts of cells loaded by ATP poration. The class given is cell-based, mouse. The note with it: for intracellular nucleotides after loading (HPLC chromatogram): 20 min poration at 37° C. in DMEM pH 7.4 with 5 mM ATP, 5 mM AMP or 3.5 mM AMPS, FIG. 5. How it is done:
Acid soluble extracts of cell suspensions were prepared by adding ice-cold 70% perchloric acid to a final concentration of 7% (w/v). Acid insoluble fractions were removed by centrifugation for 10 min at 10,000 g and 4° C. (Eppendorf Centrifuge 5417R, Fischer Scientific, Pittsburgh, Pa.). Extracts were neutralized with ice-cold 5 M K2CO3, and were stored at −80° C. until analyzed. The potassium perchlorate precipitate was removed by centrifugation as above. Analyses were performed using a Dionex HPLC system, including a GP 50 gradient pump, an AS 50 auto-sampler and an AS 50 thermal compartment (Dionex, Sunnyvale, Calif.). Aliquots of the supernatant were applied to a 4.6 mm×25 cm reverse-phase column (Synergy 4M Hydro RP 80A, Phenomenex, Torrance, Calif.),and eluted isocratically for 15 min with a starting buffer of 50 mM K2HPO4/KH2PO4, pH 6.2, containing 10 mM tetrabutyl-ammonium hydrogen sulfate (Sigma, St. Louise, Mo.) at a flow rate of 1 mL/min at 30° C. Then a linear gradient from 0% to 25% acetonitrile was applied over 40 min. Absorbance of the effluent was monitored with a PDA-100 photodiode array detector (Dionex, Sunnyvale, Calif.) at wavelengths from λ=190 nm to λ=390 nm. Peaks were identified by comparison with retention times of standards, as well as by analyzing peak spectra between λ=190 nm and λ=390 nm from a recorded 3D-field with Chromeleon™ software (Dionex, Sunnyvale, Calif.). Concentrations of nucleotides were determined from a measurement of peak area at λ=260 nm. Calibration curves were linear over the range assayed.
During poration, the cells were exposed to 5 mM AMP, or to 3.5 mM AMPS. Cells were extracted with perchloric acid after incubation. FIG. 5(A) depicts an HPLC chromatogram of the extracted AMP-loaded cells, and FIG. 5(B) depicts an HPLC chromatogram of the extracted AMPS-loaded cells.
The experiment was otherwise conducted as described in Example 5 and illustrated in FIG. 5(B), except that cellular AMP-deaminase was inhibited by adding 35 μM coformycin to the medium.

For data set [4], the system named is J774 cells. Put plainly: Cell proliferation (cell counts) after ATP poration. The class given is cell-based, mouse. Conditions: 15 min in Buffer 1+5 mM ATP, then spinner flask culture; FIG. 3. The method, then:
To introduce compounds that were otherwise membrane-impermeable into the cytoplasm, J774.A1 cells were centrifuged at 175 g; and were then resuspended in Buffer 1 (50 mM K2HPO4/KH2PO4, pH 7.0, 365 mOsm, 250 mM trehalose, 1 mM MgSO4, 5 mM glucose, supplemented with Basal Medium Eagle Vitamin Solution and MEM Amino Acids Solution (Invitrogen, Grand Islands, N.Y.), with each of the last two components diluted to 1×). […] The cells were incubated for 15 min or 30 min at 37° C. in sealed microtubes.
(§1) To assess the effect of ATP-induced permeability on cell viability, cells were grown in suspension after activation and subsequent closure of the P2X7 receptor, as described above. […] The number of viable cells at different times was determined by counting with a hemocytometer after diluting the sample 1:1 with a 0.4% Trypan blue solution (Sigma, St. Louise, Mo.). Alternatively, cell viability was assessed by monitoring the metabolic activity of the cells with AlamarBlue™ (BioSource International, Inc., Camarillo, Calif.). […] After adding 20,000 to 40,000 cells to each well, absorbances at λ=570 nm and λ=600 nm were measured with a micro plate reader (Spectramax Plus, Molecular Devices, Sunnyvale, Calif.) at different times. […]
In another series of experiments, we assessed the degree to which cell proliferation was suspended following poration. […]

The subject of a further data set is porated cells. The data set can be described thus: Early unpublished ATP-induced cell poration, cell survival. The note with it: ATP-induced poration as in literature, pores not closed early; usually within about 24 hours. The class given is cell-based. From the text: We observed that various dyes were indeed taken up by the cells as reported in the literature. But, at least in our experiments, we also invariably observed that the cells died soon thereafter.

Data set [5] relates to J774 cells. The data set can be described thus: Calorimetric heat dissipation after ATP poration. The class given is cell-based, mouse. Conditions: Buffer 1+5 mM ATP, 37° C., FIG. 4. How it is done: Calorimetric measurements were conducted to assess the influence of various treatments on the total energy flow of J774 cells. A 2277 thermal activity monitor (LKB Produkter, Bromma, Sweden) was used to measure the heat dissipation of J774 cells in suspension. A 4 mL static ampule charged with 2.7 mL water was used as a reference vessel. Static and dynamic calibrations against water in both ampules were performed before the experimental heat signals were measured. For the experiments, the sample ampule was charged with 2.7 mL of cell suspension. An aliquot of the spinner flask culture was diluted with standard culture medium to give 130,000-250,000 cells in 2.7 mL, which was equilibrated with 10% CO2 and 90% air. All calorimetric measurements were performed at 37° C. A two-hour period was allowed for thermal equilibration after lowering the ampule into the calorimeter. The power signal was then recorded for the next 20 hours. The ongoing proliferation of the cells produced a continuous increase in the heat signal during the measurements.
In this series of experiments, we assessed the influence of ATP-induced poration on the heat dissipation of J774 cells. […] Each bar in FIG. 4 represents the mean±standard deviation for three to six separate measurements. The pair of asterisks for the bar at three hours indicates a statistically significant difference from control (P<0.05).

Data set [6] has as its system J774 cells. The data set can be described thus: AlamarBlue reduction, metabolic activity after ATP-dependent poration. The class given is cell-based, mouse. The method, then: J774.A1 mouse macrophage cells (ATCC, Manassas, Va.) were grown in 75 cm^2 cell culture flasks (Corning Incorporated, Corning, N.Y.) containing a standard culture medium of Dubelco's modified Eagle's medium without sodium pyruvate, supplemented with 10% fetal bovine serum, 100 units/mL penicillin, 100 μg/mL streptomycin, and 2 mM glutamine (“DMEM”) (all from Invitrogen, Grand Islands, N.Y.). The cells were maintained in a humidified atmosphere of 10% CO2 and 90% air at 37° C. The number of cells per flask was determined with a hemocytometer after removal with a cell scraper. […]
as §1
In general terms: The colour change of resazurin is a common sign of viable cells or microbes.

The subject of data set [7] is J774 cells. Put plainly: Viability (trypan blue exclusion) after air-drying and rehydration. The class given is cell-based, mouse. The note with it: 1 μM Trifluoperazine and 200 nM cyclosporin A together, in EB drying buffer and rehydration DMEM; versus control; FIG. 10.

On to `Nc1ncnc2c1ncn2[C@@H]1O[C@H](COP(O)(O)=S)[C@@H](O)[C@H]1O` [AMPS, Adenosine 5′-phosphorothioate], for which the “Km value, fold lower than the natural effector 5′-AMP” value in data set [1] is “approximately 6 fold”. Further, the “uptake by the cells in the absence of ATP” value in the data set with J774 cells [2] (no pore opening, data not shown) is “only negligible concentrations”. Besides, the “intracellular AMPS with AMP-deaminase inhibited” value in the data set with J774 cells [3] (3.5 mM AMPS, 5 mM ATP poration, 35 μM coformycin in medium, FIG. 6) is on record as “substantial intracellular concentration of AMPS was observed”. Moreover, in the data set with J774 cells [3], the “intracellular nucleotides after loading (HPLC chromatogram)” value is on record as “substantial production of a new compound”.

In the case of `Nc1ncnc2c1ncn2[C@@H]1O[C@H](COP(=O)(O)O)[C@@H](O)[C@H]1O` [AMP], in the data set with J774 cells [3], the “intracellular nucleotides after loading (HPLC chromatogram)” value was “an increase in ADP, and a substantial increase in IMP”.

On to `Nc1ncnc2c1ncn2[C@@H]1O[C@H](COP(=O)(O)OP(=O)(O)OP(=O)(O)O)[C@@H](O)[C@H]1O` [ATP, adenosine 5′-triphosphate], for which the “time for which cell proliferation stopped after poration” value in the data set on J774 cells [4] is recorded as “approximately 20 hours”. Further, in the data set on porated cells, the “fate of porated cells in early work” value is “invariably died”. In addition, the “cells surviving extended pore opening at low temperature” value in the data set on J774 cells [2] (Buffer 1+5 mM ATP, 15 min at 37° C. followed by 2 hours at 0° C.) is listed as “At least 40%”. For the same molecule, in the data set on J774 cells [5] (versus control cells), the “heat dissipation 3 hours after poration” value is “significantly reduced”. Besides, the “heat signal 24 hours after poration” value in the data set with J774 cells [5] (versus untreated control cells) was “indistinguishable from that for the untreated control cells”. Also, the “metabolic activity when poration time increased from 15 minutes to 30 minutes” value in the data set with J774 cells [6] (Buffer 1+5 mM ATP, measured 17 h and 41 h after treatment, FIG. 2) is on record as “decreased substantially”. Further, the “reduction of metabolic activity (AlamarBlue reduction)” value with J774 cells [6] (J774 cells, 40,000 per well, 15 min incubation, versus untreated control, FIG. 1) is recorded as “about 50%”.

For `OC[C@H]1O[C@@H](n2cnc3c2N=CNC[C@H]3O)[C@H](O)[C@@H]1O` [coformycin], the “effect on the metabolism of AMPS in the cells” value in the data set with J774 cells [3] (35 μM coformycin in medium, AMPS-loaded porated cells, FIG. 6) is “inhibited the metabolism of AMPS in the cells”.

Take `OC[C@H]1O[C@H](O[C@H]2O[C@H](CO)[C@@H](O)[C@H](O)[C@H]2O)[C@H](O)[C@@H](O)[C@@H]1O` [trehalose]: the “trehalose uptake in ATP-treated cells” value with J774 cells [2] (Buffer 1+5 mM ATP (250 mM trehalose), versus Buffer 1 without ATP, 15 min 37° C. or plus 2 h 0° C., FIG. 7) was “significantly higher trehalose uptake”. Also, the “trehalose uptake in the absence of extracellular ATP” value in the data set on J774 cells [2] (Buffer 1 without ATP, FIG. 7) was “Some uptake of trehalose was observed”.

For `CN1CCN(CCCN2c3ccccc3Sc3ccc(C(F)(F)F)cc32)CC1` [trifluoperazine, Trifluoperazine], the “viability post-drying with apoptosis inhibitors” value in the data set on J774 cells [7] is “higher viability post-drying”.

As to cyclosporin A, the “viability post-drying with apoptosis inhibitors” value in the data set with J774 cells [7] is “higher viability post-drying”.
